Reference: the Kinase Knowledgebase extract (Sharma et al. 2016)

Each molecule was assayed against MAPK14 (human) (UniProt Q16539) (assay: Inhibition of MAPK14 Kinase Activity).
Chain of MAPK14 (human) (Q16539 whole entry, looked up): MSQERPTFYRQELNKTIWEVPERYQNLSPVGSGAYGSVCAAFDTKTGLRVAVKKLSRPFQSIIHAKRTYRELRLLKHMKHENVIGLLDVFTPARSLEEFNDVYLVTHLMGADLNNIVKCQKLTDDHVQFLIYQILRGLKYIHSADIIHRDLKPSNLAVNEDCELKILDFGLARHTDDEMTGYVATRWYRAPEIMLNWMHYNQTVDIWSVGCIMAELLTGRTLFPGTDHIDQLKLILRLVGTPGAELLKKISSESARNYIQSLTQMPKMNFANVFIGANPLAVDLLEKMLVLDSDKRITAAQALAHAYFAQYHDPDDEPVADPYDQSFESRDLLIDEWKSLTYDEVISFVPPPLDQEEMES

| SMILES | IC50 [nM] |
| --- | --- |
| Cc1onc(-c2ccc(F)cc2)c1-c1ccn(C(=O)NC(C)C)n1 | ≤ 1000 |
| COc1ccc2cc(C(C)C(=O)NCc3nc(-c4ccc(F)cc4)c(-c4nc(C(=O)NC(C)C)cs4)o3)ccc2c1 (stereo not drawn) | ≤ 1000 |
| COc1ccc(CNC(=O)c2csc(-c3sc(C)nc3-c3ccc(F)cc3)n2)cc1O | ≤ 1000 |
| CC(C)NC(=O)c1csc(-c2c(-c3ccc(F)cc3)n[nH]c2C2CCN(C(=O)c3ncc[nH]3)CC2)n1 | ≤ 1000 |
| CC(C)NC(=O)c1csc(-c2oc(CNC(=O)CC#N)nc2-c2ccc(F)cc2)n1 | ≤ 1000 |
| Cc1nc(-c2ccc(F)cc2)c(-c2nc(C(=O)NCc3ccc(F)c(F)c3)cs2)s1 | ≤ 1000 |
| COc1ccc(CNC(=O)c2csc(-c3sc(C)nc3-c3ccc(F)cc3)n2)cc1OC | ≤ 1000 |
| CCNC(=O)c1csc(-c2c(-c3ccc(F)cc3)n[nH]c2C2CCN(C(=O)CO)CC2)n1 | ≤ 1000 |
| Cc1nc(-c2ccc(F)cc2)c(-c2nc(C(=O)NCC3CCCO3)cs2)s1 (stereo not drawn) | ≤ 1000 |
| C#CCNC(=O)c1csc(-c2c(-c3ccc(F)cc3)n[nH]c2C2CCN(C(=O)CO)CC2)n1 | ≤ 1000 |
| CC(C)NC(=O)c1csc(-c2oc(CN3CCN(C(=O)c4cc(O)ccc4O)CC3)nc2-c2ccc(F)cc2)n1 | ≤ 1000 |
| CC(C)NC(=O)c1csc(-c2oc(CNC(=O)C=Cc3ccccc3F)nc2-c2ccc(F)cc2)n1 | ≤ 1000 |
| C#CCNC(=O)c1csc(-c2[nH]c(CN3CCNCC3)nc2-c2ccc(F)cc2)n1 | ≤ 1000 |
| CC(C)NC(=O)c1csc(-c2c(-c3ccc(F)cc3)n[nH]c2C2CCN(C(=O)CCc3nc4ccccc4[nH]3)CC2)n1 | ≤ 1000 |
| CC(C)NC(=O)c1csc(-c2oc(CN3CCN(C(=O)Cc4cccc(O)c4)CC3)nc2-c2ccc(F)cc2)n1 | ≤ 1000 |
| Cc1ccc([N+](=O)[O-])c(C(=O)NCc2onc(-c3ccc(F)cc3)c2-c2nc(C(=O)NC(C)C)cs2)c1 | ≤ 1000 |
| CC(C)NC(=O)c1csc(-c2oc(CNC(=O)c3cc(C(C)C)cc(C(C)C)c3O)nc2-c2ccc(F)cc2)n1 | ≤ 1000 |
| CC(=O)c1cccc(NC(=O)c2csc(-c3sc(C)nc3-c3ccc(F)cc3)n2)c1 | ≤ 1000 |
| C#CCNC(=O)c1csc(-c2sc(C)nc2-c2ccc(F)cc2)n1 | ≤ 1000 |
| CC(C)NC(=O)c1csc(-c2oc(CN3CCN(C(=O)c4ccccc4O)CC3)nc2-c2ccc(F)cc2)n1 | ≤ 1000 |
| Cc1nc(-c2ccc(F)cc2)c(-c2nc(C(=O)NCc3ccc(F)cc3)cs2)s1 | ≤ 1000 |
| CC(C)NC(=O)c1csc(-c2oc(CNC(=O)CC3=CC(Cl)=C(O)OC3)nc2-c2ccc(F)cc2)n1 | ≤ 1000 |

| SMILES | IC50 [nM] |
| --- | --- |
| CC(C)NC(=O)c1csc(-c2oc(CN3CCN(C(=O)C(Cl)(Cl)Cl)CC3)nc2-c2ccc(F)cc2)n1 | ≤ 1000 |
| CC(C)NC(=O)c1csc(-c2c(-c3ccc(F)cc3)noc2CNC(=O)C=Cc2ccccc2F)n1 | ≤ 1000 |
| Cc1ccc([N+](=O)[O-])c(C(=O)NCc2nc(-c3ccc(F)cc3)c(-c3nc(C(=O)NC(C)C)cs3)o2)c1 | ≤ 1000 |
| CC(C)NC(=O)c1csc(-c2c(-c3ccc(F)cc3)noc2CNC(=O)Cc2cccc(O)c2)n1 | ≤ 1000 |
| CC(C)NC(=O)c1csc(-c2oc(CNC(=O)C3CN(C(=O)OC(C)(C)C)CCN3)nc2-c2ccc(F)cc2)n1 (stereo not drawn) | ≤ 1000 |
| CC(=O)N1CCC(n2cnc(-c3ccc(Cl)cc3)c2-c2nc(C(=O)NC(C)C)cs2)CC1 | ≤ 1000 |
| COc1cccc(O)c1C(=O)N1CCN(Cc2nc(-c3ccc(F)cc3)c(-c3nc(C(=O)NC(C)C)cs3)o2)CC1 | ≤ 1000 |
| Cc1onc(-c2ccc(Cl)cc2)c1-c1ccn(C(=O)NC2CCCCC2)n1 | ≤ 1000 |
| O=C(NCCCO)c1csc(-c2c(-c3ccc(F)cc3)n[nH]c2C2CCNCC2)n1 | ≤ 1000 |
| COCc1onc(-c2ccc(Cl)cc2)c1-c1ccn(C(=O)NC(C)C)n1 | ≤ 1000 |
| Cc1nc(-c2ccc(F)cc2)c(-c2nc(C(=O)NC3CCCCC3C)cs2)s1 (stereo not drawn) | ≤ 1000 |
| COc1ccccc1C=CC(=O)N1CCN(Cc2nc(-c3ccc(F)cc3)c(-c3nc(C(=O)NC(C)C)cs3)o2)CC1 | ≤ 1000 |
| Cc1nc(-c2ccc(F)cc2)c(-c2nc(C(=O)NCCc3ccccc3F)cs2)s1 | ≤ 1000 |
| Cc1nc(-c2ccc(F)cc2)c(-c2nc(C(=O)NCc3ccncc3)cs2)s1 | ≤ 1000 |
| CC(C)NC(=O)c1csc(-c2oc(CN3CCN(C(=O)Cc4ccc(O)c(F)c4)CC3)nc2-c2ccc(F)cc2)n1 | ≤ 1000 |
| CC(C)NC(=O)c1csc(-c2oc(CN3CCN(C(=O)c4cccc(Cl)c4[N+](=O)[O-])CC3)nc2-c2ccc(F)cc2)n1 | ≤ 1000 |
| CCOC(=O)CC1C(=O)NCCN1C(=O)c1csc(-c2sc(C)nc2-c2ccc(F)cc2)n1 (stereo not drawn) | ≤ 1000 |
| CC(C)NC(=O)c1csc(-c2c(-c3ccc(F)cc3)n[nH]c2C2CCN(C(=O)c3cc(Cl)ccn3)CC2)n1 | ≤ 1000 |
| Cc1ccc(S(=O)(=O)NCCNCc2nc(-c3ccc(F)cc3)c(-c3nc(C(=O)NC(C)C)cs3)o2)cc1 | ≤ 1000 |
| Cc1cccc(CNC(=O)c2csc(-c3sc(C)nc3-c3ccc(F)cc3)n2)c1 | ≤ 1000 |
| CC(C)NC(=O)c1csc(-c2oc(CN3CCN(C(=O)c4cn(C)cn4)CC3)nc2-c2ccc(F)cc2)n1 | ≤ 1000 |
| CC(=O)c1ccc(C(=O)NCc2nc(-c3ccc(F)cc3)c(-c3nc(C(=O)NC(C)C)cs3)o2)cc1 | ≤ 1000 |

| SMILES | IC50 [nM] |
| --- | --- |
| COc1cc(C(=O)N2CCN(Cc3nc(-c4ccc(F)cc4)c(-c4nc(C(=O)NC(C)C)cs4)o3)CC2)cc(OC)c1O | ≤ 1000 |
| Cc1onc(-c2ccccc2)c1-c1ccn(C(=O)NC(C)C)n1 | ≤ 1000 |
| CC(C)NC(=O)c1csc(-c2oc(CNC(=O)c3cc(O)ccc3[N+](=O)[O-])nc2-c2ccc(F)cc2)n1 | ≤ 1000 |
| CC(C)NC(=O)c1csc(-c2c(-c3ccc(F)cc3)n[nH]c2C2CCN(C(=O)c3cccnc3)CC2)n1 | ≤ 1000 |
| COc1cc(C(=O)NCc2nc(-c3ccc(F)cc3)c(-c3nc(C(=O)NC(C)C)cs3)o2)c([N+](=O)[O-])cc1OC | ≤ 1000 |
| CC(C)NC(=O)c1csc(-c2oc(CN3CCN(C(=O)C4CCc5ccccc5C4)CC3)nc2-c2ccc(F)cc2)n1 (stereo not drawn) | ≤ 1000 |
| COCCNC(=O)c1csc(-c2sc(C)nc2-c2ccc(F)cc2)n1 | ≤ 1000 |
| CC(C)NC(=O)c1csc(-c2[nH]c(N)nc2-c2ccc(F)cc2)n1 | ≤ 1000 |
| COc1cccc(OC)c1C(=O)N1CCN(Cc2nc(-c3ccc(F)cc3)c(-c3nc(C(=O)NC(C)C)cs3)o2)CC1 | ≤ 1000 |
| Cc1nc(-c2ccc(F)cc2)c(-c2nc(C(=O)Nc3cccc(Cl)c3C)cs2)s1 | ≤ 1000 |
| COc1ccccc1CNC(=O)c1csc(-c2sc(C)nc2-c2ccc(F)cc2)n1 | ≤ 1000 |
| COc1ccc(Br)c(C(=O)NCc2nc(-c3ccc(F)cc3)c(-c3nc(C(=O)NC(C)C)cs3)o2)c1 | ≤ 1000 |
| Cc1nc(-c2ccc(F)cc2)c(-c2nc(C(=O)NCC#N)cs2)s1 | ≤ 1000 |
| CC(=O)Nc1cccc(C(=O)N2CCC(c3[nH]nc(-c4ccc(F)cc4)c3-c3nc(C(=O)NC(C)C)cs3)CC2)c1 | ≤ 1000 |
| CC(C)NC(=O)c1csc(-c2c(-c3ccc(F)cc3)noc2CN(C)CCO)n1 | ≤ 1000 |
| CC(C)NC(=O)c1csc(-c2c(-c3ccc(F)cc3)n[nH]c2C2CCN(C(=O)c3cccc4ccccc34)CC2)n1 | ≤ 1000 |
| COc1ccc([N+](=O)[O-])c(C(=O)NCc2nc(-c3ccc(F)cc3)c(-c3nc(C(=O)NC(C)C)cs3)o2)c1 | ≤ 1000 |
| Cc1nc(-c2ccc(F)cc2)c(-c2nc(C(=O)Nc3ccc4c(c3)OCCO4)cs2)s1 | ≤ 1000 |
| Cc1cccc([N+](=O)[O-])c1C(=O)N1CCN(Cc2nc(-c3ccc(F)cc3)c(-c3nc(C(=O)NC(C)C)cs3)o2)CC1 | ≤ 1000 |
| CC(C)NC(=O)c1csc(-c2oc(CNC(=O)Cc3ccc(O)c(F)c3)nc2-c2ccc(F)cc2)n1 | ≤ 1000 |
| CC(CO)NC(=O)c1csc(-c2c(-c3ccc(F)cc3)n[nH]c2C2CCNCC2)n1 (stereo not drawn) | ≤ 1000 |
| Cc1nc(-c2ccc(F)cc2)c(-c2nc(C(=O)NCc3cccc(Cl)c3)cs2)s1 | ≤ 1000 |

| SMILES | IC50 [nM] |
| --- | --- |
| CC(C)NC(=O)c1csc(-c2oc(CNC(=O)c3cccc(O)c3O)nc2-c2ccc(F)cc2)n1 | ≤ 1000 |
| Cc1cnc(CNC(=O)c2csc(-c3sc(C)nc3-c3ccc(F)cc3)n2)cn1 | ≤ 1000 |
| Cc1nc(-c2ccc(F)cc2)c(-c2nc(C(=O)NCc3ccc4c(c3)OCO4)cs2)s1 | ≤ 1000 |
| CC(C)NC(=O)c1csc(-c2c(-c3ccc(F)cc3)noc2CNC(=O)c2ccncc2Cl)n1 | ≤ 1000 |
| CC(C)NC(=O)c1csc(-c2oc(CN3CCN(C(=O)Cc4ccc(C(F)(F)F)cc4)CC3)nc2-c2ccc(F)cc2)n1 | ≤ 1000 |
| CC(C)NC(=O)c1csc(-c2oc(CN3CCN(C(=O)c4cc(F)c(F)cc4[N+](=O)[O-])CC3)nc2-c2ccc(F)cc2)n1 | ≤ 1000 |
| Cc1nc(-c2ccc(F)cc2)c(-c2nc(C(=O)Nc3cnc4ccccc4c3)cs2)s1 | ≤ 1000 |
| CC(C)NC(=O)c1csc(-c2oc(CN3CCN(C(=O)c4cccc(O)c4O)CC3)nc2-c2ccc(F)cc2)n1 | ≤ 1000 |
| CC(C)NC(=O)c1csc(-c2c(-c3ccc(F)cc3)n[nH]c2C2CCN(C(=O)CC#N)CC2)n1 | ≤ 1000 |
| Cc1onc(-c2ccc(F)c(Cl)c2)c1-c1ccn(C(=O)NC(C)C)n1 | ≤ 1000 |
| CCNC(=O)c1csc(-c2c(-c3ccc(F)cc3)n[nH]c2C2CCNCC2)n1 | ≤ 1000 |
| CC(C)NC(=O)c1csc(-c2c(-c3ccc(F)cc3)n[nH]c2C2CCN(C(=O)C=O)CC2)n1 | ≤ 1000 |
| Cc1nc(-c2ccc(F)cc2)c(-c2nc(C(=O)NCc3ccccn3)cs2)s1 | ≤ 1000 |
| CC(=O)NCC(=O)NCc1nc(-c2ccc(F)cc2)c(-c2nc(C(=O)NC(C)C)cs2)o1 | ≤ 1000 |
| Cc1nc(-c2ccc(F)cc2)c(-c2nc(C(=O)NCc3ccc(Cl)c(Cl)c3)cs2)s1 | ≤ 1000 |
| CCN(Cc1onc(-c2ccc(F)cc2)c1-c1nc(C(=O)NC(C)C)cs1)C(Cc1ccccc1)c1ccco1 (stereo not drawn) | ≤ 1000 |
| Cc1nc(-c2ccc(F)cc2)c(-c2nc(C(=O)NC(C)C)cs2)o1 | ≤ 1000 |
| COc1ccc(CCNC(=O)c2csc(-c3sc(C)nc3-c3ccc(F)cc3)n2)cc1 | ≤ 1000 |
| CC(C)NC(=O)c1csc(-c2oc(CNC(=O)c3cc(F)c(F)cc3Cl)nc2-c2ccc(F)cc2)n1 | ≤ 1000 |
| O=C(NC1CCC1)c1csc(-c2c(-c3ccc(F)cc3)n[nH]c2C2CCNCC2)n1 | ≤ 1000 |
| CC(C)NC(=O)c1csc(-c2oc(CNCc3ccccc3OC(F)(F)F)nc2-c2ccc(F)cc2)n1 | ≤ 1000 |
| CC1=NN(c2ccc(C(=O)NCc3nc(-c4ccc(F)cc4)c(-c4nc(C(=O)NC(C)C)cs4)o3)cc2)C(=O)C1 | ≤ 1000 |
